The source of these data is ChEMBL document CHEMBL4699447, “Initial Analysis of the Arylomycin D Antibiotics” (2020).

Format in all cases: functional
The test system of one assay is Yersinia pestis. Kind of assay: Antimicrobial activity against Yersinia pestis KIM6+ assessed as reduction in microbial growth after 24 hrs by CLSI based broth microdilution method.
Assay [1] relates to Staphylococcus epidermidis. Kind of assay: Antimicrobial activity against Staphylococcus epidermidis RP62A assessed as reduction in microbial growth after 24 hrs by CLSI based broth microdilution method.
Assay [2] has as its system Escherichia coli. Kind of assay: Antimicrobial activity against Escherichia coli K-12 assessed as reduction in microbial growth after 24 hrs by CLSI based broth microdilution method.
The test system of assay [3] is Escherichia coli. The experiment in a line: Antimicrobial activity against Escherichia coli IMP BAS901 assessed as reduction in microbial growth after 24 hrs by CLSI based broth microdilution method.
The next assay relates to Staphylococcus aureus. Kind of assay: Antimicrobial activity against methicillin-resistant Staphylococcus aureus USA300 assessed as reduction in microbial growth after 24 hrs by CLSI based broth microdilution method.

As for `CCCCCCCCCCCCCCCC(=O)NCCC(=O)N[C@@H](CS(=O)(=O)O)C(=O)N(C)[C@@H]1C(=O)N[C@@H](C)C(=O)N[C@H](C(=O)O)Cc2ccc(O)c(c2)-c2cc1ccc2O`, the MIC in the assay with Yersinia pestis was 2 µg/mL; in assay [1], 4 µg/mL; with Escherichia coli [2], over 64 µg/mL; in the assay on Escherichia coli [3] it was over 64 µg/mL; with Staphylococcus aureus it was 16 µg/mL.

For `CCCCCCCCCCCCCCCC(=O)NCCC(=O)N[C@@H](CS(=O)(=O)O)C(=O)N(C)[C@@H]1C(=O)N[C@@H](C)C(=O)N[C@H](C(=O)O)Cc2ccc(OS(=O)(=O)O)c(c2)-c2cc1cc(OS(=O)(=O)O)c2O[C@@H]1O[C@@H](C)[C@H](O)[C@@H](O)[C@H]1O`, the MIC (with Yersinia pestis; in assay [1]; with Escherichia coli [3]; in the assay on Staphylococcus aureus) was over 64 µg/mL in each case.

On to `CCCCCCCCCCCCCCCC(=O)NCCC(=O)N[C@H](CS(=O)(=O)O)C(=O)N(C)[C@@H]1C(=O)N[C@@H](C)C(=O)N[C@H](C(=O)O)Cc2ccc(OS(=O)(=O)O)c(c2)-c2cc1cc(OS(=O)(=O)O)c2O[C@@H]1O[C@@H](C)[C@H](O)[C@@H](O)[C@H]1O`, for which the minimal inhibitory concentration (MIC) (in the assay with Yersinia pestis; in assay [1]; in the assay on Escherichia coli [3]; in the assay with Staphylococcus aureus) was over 64 µg/mL throughout.

With `CCCCCCCCCCCCCCCC(=O)N(C)[C@H](CO)C(=O)N[C@H](C)C(=O)NCC(=O)N(C)[C@@H]1C(=O)N[C@@H](C)C(=O)N[C@H](C(=O)O)Cc2ccc(OS(=O)(=O)O)c(c2)-c2cc1cc(OS(=O)(=O)O)c2O[C@@H]1O[C@@H](C)[C@H](O)[C@@H](O)[C@H]1O`, the MIC (in the assay on Yersinia pestis; in assay [1]; with Escherichia coli [3]; with Staphylococcus aureus) was over 64 µg/mL throughout.

Consider `CCCCCCCCCCCCCCCC(=O)NCCC(=O)N[C@@H](CS(=O)(=O)O)C(=O)N(C)[C@@H]1C(=O)N[C@@H](C)C(=O)N[C@H](C(=O)O)Cc2ccc(O)c(c2)-c2cc1cc(O)c2O[C@@H]1O[C@@H](C)[C@H](O)[C@@H](O)[C@H]1O`, for which the MIC in the assay with Yersinia pestis is 4 µg/mL; in assay [1] it was 8 µg/mL; in the assay on Escherichia coli [2], over 64 µg/mL; in the assay with Escherichia coli [3], 64 µg/mL; in the assay on Staphylococcus aureus, 32 µg/mL.

For the compound `CCCCCCCCCCCCCCCC(=O)N(C)[C@H](CO)C(=O)N[C@H](C)C(=O)NCC(=O)N(C)[C@@H]1C(=O)N[C@@H](C)C(=O)N[C@H](C(=O)O)Cc2ccc(O)c(c2)-c2cc1ccc2O` [ARYLOMYCIN C16], the MIC is 0.25 µg/mL in assay [1], over 64 µg/mL with Escherichia coli [2], 16 µg/mL in the assay on Escherichia coli [3] and over 64 µg/mL in the assay with Staphylococcus aureus.
